ChEMBL document CHEMBL1201862, “PubChem BioAssay data set” (2004)
Active and inactive are the calls of the source.

Legend:
[1] = test system: Streptococcus sp. 'group A'; assay: Streptococcus pyogenes SK(-)GAS viability under kanamycin – luminescence, BacTiterGlo, confirmation, counter-screen for streptokinase expression inhibitor project, dose response (AID 1900); type: functional, organism-based
Beta-galactosidase [2] = molecular target: T1, Beta-galactosidase (Escherichia coli, UniProt Q8VNN2); assay: PubChem AID 485352; type: functional
T1 sequence (Q8VNN2 whole entry): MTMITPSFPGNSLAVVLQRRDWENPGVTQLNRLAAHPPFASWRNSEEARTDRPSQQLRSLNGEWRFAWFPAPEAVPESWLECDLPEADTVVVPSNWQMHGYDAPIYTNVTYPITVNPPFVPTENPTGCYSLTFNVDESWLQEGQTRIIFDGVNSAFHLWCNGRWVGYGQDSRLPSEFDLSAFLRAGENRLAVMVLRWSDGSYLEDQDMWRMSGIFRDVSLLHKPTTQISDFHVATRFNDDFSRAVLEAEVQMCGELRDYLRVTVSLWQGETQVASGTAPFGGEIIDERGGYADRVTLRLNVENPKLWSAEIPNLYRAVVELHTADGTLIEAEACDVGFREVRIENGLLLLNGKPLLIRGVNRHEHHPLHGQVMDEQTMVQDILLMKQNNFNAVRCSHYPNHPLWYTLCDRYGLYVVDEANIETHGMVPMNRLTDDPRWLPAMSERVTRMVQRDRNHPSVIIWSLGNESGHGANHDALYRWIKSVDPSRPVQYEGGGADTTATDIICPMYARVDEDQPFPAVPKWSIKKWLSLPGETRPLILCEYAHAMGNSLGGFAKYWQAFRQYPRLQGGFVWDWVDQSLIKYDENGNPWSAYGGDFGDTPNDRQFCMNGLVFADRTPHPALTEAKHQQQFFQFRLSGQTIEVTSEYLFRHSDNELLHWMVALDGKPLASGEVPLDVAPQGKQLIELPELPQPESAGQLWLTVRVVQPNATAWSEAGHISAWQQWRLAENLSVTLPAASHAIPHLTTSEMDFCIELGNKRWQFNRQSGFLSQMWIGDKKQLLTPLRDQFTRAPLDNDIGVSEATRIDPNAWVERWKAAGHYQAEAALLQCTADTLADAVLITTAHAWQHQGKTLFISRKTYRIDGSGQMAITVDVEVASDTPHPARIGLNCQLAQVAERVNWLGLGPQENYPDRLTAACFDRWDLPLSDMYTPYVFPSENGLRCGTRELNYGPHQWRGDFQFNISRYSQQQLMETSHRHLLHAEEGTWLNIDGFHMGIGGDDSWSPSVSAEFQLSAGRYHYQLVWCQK

Streptokinase A = molecular target: T2, Streptokinase A (Streptococcus pyogenes serotype M1, UniProt P10520); assay: viability-normalized secreted streptokinase activity reduction – plasminogen activation absorbance, OD405, dose response (AID 1914); type: functional, Streptococcus pyogenes M1 GAS;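 note: secreted streptokinase activity via plasminogen activation per viability signal from cell pellet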
T2 sequence (P10520 whole entry): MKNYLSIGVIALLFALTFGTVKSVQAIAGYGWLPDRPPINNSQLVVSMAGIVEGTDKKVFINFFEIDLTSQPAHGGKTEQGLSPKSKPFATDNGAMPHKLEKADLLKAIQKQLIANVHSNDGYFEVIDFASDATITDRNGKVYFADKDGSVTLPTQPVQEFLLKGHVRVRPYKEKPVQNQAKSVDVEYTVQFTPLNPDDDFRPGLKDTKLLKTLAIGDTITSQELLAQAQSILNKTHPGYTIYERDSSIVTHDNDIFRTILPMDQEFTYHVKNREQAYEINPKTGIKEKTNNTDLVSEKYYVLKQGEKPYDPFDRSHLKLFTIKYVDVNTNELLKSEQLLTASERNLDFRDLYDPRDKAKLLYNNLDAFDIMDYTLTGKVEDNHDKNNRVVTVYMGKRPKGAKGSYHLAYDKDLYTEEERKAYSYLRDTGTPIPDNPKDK

[3] = molecular target: T3, Type-1 angiotensin II receptor (Homo sapiens, UniProt P30556); assay: antagonism of angiotensin II type 1 receptor – cell-based, uHTS hits, selectivity assay for APJ receptor antagonist project, dose response (AID 463214); type: functional;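 note: antagonist potency against angiotensin II stimulated AT1 response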
T3 sequence (P30556 whole entry): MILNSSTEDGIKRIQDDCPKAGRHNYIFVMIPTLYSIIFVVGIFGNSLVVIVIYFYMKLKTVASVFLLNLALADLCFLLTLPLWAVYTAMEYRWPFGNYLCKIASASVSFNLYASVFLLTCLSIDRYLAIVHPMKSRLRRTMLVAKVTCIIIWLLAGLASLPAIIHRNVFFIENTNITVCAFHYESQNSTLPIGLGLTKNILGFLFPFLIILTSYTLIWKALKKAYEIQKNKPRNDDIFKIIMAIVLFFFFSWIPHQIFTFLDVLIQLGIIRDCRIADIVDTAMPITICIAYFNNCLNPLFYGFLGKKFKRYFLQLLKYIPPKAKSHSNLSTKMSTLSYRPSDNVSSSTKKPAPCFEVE

[4] = molecular target: T4, Kappa-type opioid receptor (Homo sapiens, UniProt P41145); type: functional
T4 sequence (P41145 whole entry): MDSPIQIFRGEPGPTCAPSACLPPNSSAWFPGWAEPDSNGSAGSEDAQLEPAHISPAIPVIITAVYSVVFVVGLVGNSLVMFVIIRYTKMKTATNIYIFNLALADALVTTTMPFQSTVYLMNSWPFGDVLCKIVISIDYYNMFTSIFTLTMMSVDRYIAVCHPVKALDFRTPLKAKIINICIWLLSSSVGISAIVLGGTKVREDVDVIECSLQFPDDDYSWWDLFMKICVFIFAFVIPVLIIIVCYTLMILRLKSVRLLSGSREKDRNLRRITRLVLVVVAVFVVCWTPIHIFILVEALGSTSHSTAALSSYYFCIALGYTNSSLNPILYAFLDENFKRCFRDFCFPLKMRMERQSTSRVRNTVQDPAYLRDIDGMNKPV

Beta-galactosidase [5] = molecular target: T1, Beta-galactosidase; type: functional
[6] = molecular target: T4, Kappa-type opioid receptor; type: functional; remark: listed apart in the source
Streptococcus = assay: GAS UMAA2166 growth inhibition – luminescence, BacTiterGlo, counter-screen for streptokinase expression inhibitor project, dose response (AID 1915); type: functional, organism-based;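 note: potency for reduction of bacterial viability or growth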
[7] = THP-1 cell cytotoxicity, dose response, cytotoxicity control for non-replicating M. tuberculosis project (AID 489025); type: functional
[8] = HepG2 cell cytotoxicity, dose response, cytotoxicity control for non-replicating M. tuberculosis project (AID 489018); type: functional; details: Mycobacterium tuberculosis
[9] = Vero E6 cell cytotoxicity, dose response, cytotoxicity control for non-replicating M. tuberculosis project, secondary assay (AID 492998); type: functional, VeroE6; details: Vero C1008
cells = type: functional
INS1 = assay: INS-1E survival protection against cytokine death – cell-based, luminescence, retest, dose response (AID 449756); type: functional; details: Rattus norvegicus;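 note: cell death triggered by IL-1 beta plus TNF-alpha plus IFN-gamma mixture; protective hits raise ATP signal compared with cytokine alone wells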
[10] = A549 cell cytotoxicity, dose response, cytotoxicity control, plate reader, cherry-pick, antagonist series (AID 743412); type: functional, cell-based
[11] = toxicity toward HepG2 liver cells – cell-based, plate reader, cherry-pick, antagonist series, cytotoxicity control, dose response (AID 743416); type: functional
[12] = blockers of bursicon-stimulated LGR2 cAMP reporter – cell-based, HEK293, CRE-luciferase reporter, cherry pick, set 2, dose response (AID 743343); type: functional;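 note: transfected cells were stimulated with diluted bursicon conditioned medium after compound addition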
[13] = blockade of melanocortin 4 receptor signaling – cell-based, plate reader, cherry pick, counter-screen for LGR2 antagonist project, dose response (AID 743444); type: functional;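 note: transfected HEK 293 cells stimulated with alpha-MSH peptide; potency of inhibitors of the alpha-MSH evoked signal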
[14] = viability loss in HEK293 cells – cell-based, plate reader, cherry-picked samples, cytotoxicity control, dose response (AID 743446); type: functional
Coagulation factor XII [15] = molecular target: T5, Coagulation factor XII (Homo sapiens, UniProt P00748); assay: activated coagulation factor XII inhibitor potency, concentration-effect curve, cell-free (AID 716); type: functional
T5 sequence (P00748 whole entry): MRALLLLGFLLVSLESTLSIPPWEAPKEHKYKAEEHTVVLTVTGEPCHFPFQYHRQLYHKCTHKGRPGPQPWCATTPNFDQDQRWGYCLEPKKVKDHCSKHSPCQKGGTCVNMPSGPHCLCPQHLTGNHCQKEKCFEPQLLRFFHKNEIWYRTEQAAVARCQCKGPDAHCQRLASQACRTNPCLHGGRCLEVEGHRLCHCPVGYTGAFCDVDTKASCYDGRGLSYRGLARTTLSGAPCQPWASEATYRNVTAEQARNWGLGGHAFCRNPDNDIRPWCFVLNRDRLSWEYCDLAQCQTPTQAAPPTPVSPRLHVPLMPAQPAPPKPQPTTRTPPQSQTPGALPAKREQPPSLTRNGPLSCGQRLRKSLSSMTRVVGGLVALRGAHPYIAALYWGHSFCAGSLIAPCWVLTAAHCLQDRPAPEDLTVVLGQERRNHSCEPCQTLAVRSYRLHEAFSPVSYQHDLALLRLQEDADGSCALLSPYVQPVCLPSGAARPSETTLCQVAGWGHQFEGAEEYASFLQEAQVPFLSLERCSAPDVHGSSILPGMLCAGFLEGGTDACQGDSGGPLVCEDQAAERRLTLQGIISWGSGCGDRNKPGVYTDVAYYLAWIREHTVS

[16] = molecular target: T6, Sphingosine 1-phosphate receptor 4 (Homo sapiens, UniProt O95977); assay: Late-stage fluorescence dose response cell-based assay to identify agonists of the Sphingosine 1-Phosphate Receptor 4 (S1P4): purchased compounds EC50. [Related pubchem assays (depositor defined):AID1509, AID1523, AID1563, AID1686, AID1701, AID1801]; type: functional
T6 sequence (O95977 whole entry): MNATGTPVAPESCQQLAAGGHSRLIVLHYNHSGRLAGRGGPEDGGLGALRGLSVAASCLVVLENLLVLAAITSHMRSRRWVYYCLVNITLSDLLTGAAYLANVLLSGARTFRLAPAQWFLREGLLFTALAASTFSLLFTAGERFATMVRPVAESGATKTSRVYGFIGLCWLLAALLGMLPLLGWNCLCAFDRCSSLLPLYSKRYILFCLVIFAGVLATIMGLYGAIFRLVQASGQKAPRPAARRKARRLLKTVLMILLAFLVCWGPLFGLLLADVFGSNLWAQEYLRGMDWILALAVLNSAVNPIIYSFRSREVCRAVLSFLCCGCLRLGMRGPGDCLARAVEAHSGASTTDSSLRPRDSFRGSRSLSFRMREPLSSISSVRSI

Coagulation factor XII [17] = molecular target: T5, Coagulation factor XII; type: functional
[18] = luciferase reporter signal suppression in cells – H4 neuroglioma cells, luminescence, dose response (AID 1990); type: functional, cell-based
[19] = Luminescence Cell-Based Dose Response HTS to Identify Inhibitors of 5'UTR Stem-Loop Driven Prion Protein mRNA Translation in H4 Neuroglioblastoma Cells. [Related pubchem assays: 1827 (Project Summary), 1813 (Primary HTS)]; type: functional
[20] = alpha-synuclein stem-loop luciferase translation blockers – H4 neuroglioma cells, luminescence, confirmation (AID 1988); type: functional, cell-based
Phosphomannomutase 2 = Phosphomannomutase 2 (Homo sapiens, UniProt O15305); assay: Counter screen SAR assay for PMM2 inhibitors via a fluorescence intensity assay. [Related pubchem assays (depositor defined):AID1545, AID1574]
Phosphomannomutase 2, sequence (O15305 whole entry): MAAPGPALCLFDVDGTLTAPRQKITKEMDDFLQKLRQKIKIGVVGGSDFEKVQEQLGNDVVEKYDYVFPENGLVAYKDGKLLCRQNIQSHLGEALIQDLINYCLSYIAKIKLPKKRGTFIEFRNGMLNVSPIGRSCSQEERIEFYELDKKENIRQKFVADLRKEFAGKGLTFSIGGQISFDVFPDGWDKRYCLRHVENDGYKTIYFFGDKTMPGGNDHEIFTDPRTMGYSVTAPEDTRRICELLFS

X-box-binding protein 1 = molecular target: T7, X-box-binding protein 1 (Homo sapiens, UniProt P17861); type: functional, Cricetulus griseus;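 note: confirmatory dose-response counter-screen serving a CHOP assay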
T7 sequence (P17861 whole entry): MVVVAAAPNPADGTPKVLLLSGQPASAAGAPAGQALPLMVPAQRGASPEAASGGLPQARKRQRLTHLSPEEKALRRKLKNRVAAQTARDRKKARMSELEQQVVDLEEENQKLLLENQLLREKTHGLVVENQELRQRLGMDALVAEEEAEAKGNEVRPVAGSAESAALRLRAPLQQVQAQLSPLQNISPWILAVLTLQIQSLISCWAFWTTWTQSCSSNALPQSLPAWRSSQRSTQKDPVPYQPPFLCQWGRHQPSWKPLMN

Paired box protein Pax-8 = Paired box protein Pax-8 (Homo sapiens, UniProt Q06710); assay: PAX8 transcriptional activity inhibition in RMG-I – RMG-I cells, luciferase, cherry-pick, dose response (AID 687027); type: functional, cell-based;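 note: luciferase reporter driven by Pax8 target thyroperoxidase promoter measured by SteadyGlo luminescence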
Paired box protein Pax-8, sequence (Q06710 whole entry): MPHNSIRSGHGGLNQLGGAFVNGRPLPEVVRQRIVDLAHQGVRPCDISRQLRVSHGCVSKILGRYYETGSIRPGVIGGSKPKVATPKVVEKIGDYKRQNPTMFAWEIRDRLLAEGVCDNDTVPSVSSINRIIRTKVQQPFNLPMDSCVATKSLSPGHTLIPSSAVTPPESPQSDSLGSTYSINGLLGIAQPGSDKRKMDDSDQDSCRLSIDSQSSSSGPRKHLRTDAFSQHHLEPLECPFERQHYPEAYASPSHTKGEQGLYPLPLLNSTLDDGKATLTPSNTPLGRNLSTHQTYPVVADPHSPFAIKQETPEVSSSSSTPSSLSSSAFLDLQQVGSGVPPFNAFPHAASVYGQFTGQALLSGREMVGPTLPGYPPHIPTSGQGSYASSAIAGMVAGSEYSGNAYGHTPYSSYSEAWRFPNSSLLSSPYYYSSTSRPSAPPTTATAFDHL

With `O=C(Nc1nc2ccc(F)cc2s1)c1ccccn1` the EC50 [1] was 2.5 µM (active), the EC50 (Beta-galactosidase [2]) was > 40 µM (inactive) and the EC50 (Streptokinase A) was > 150 µM (not active). The IC50 [3] was 3.96 µM (active), the IC50 [4] was 4.6 µM (active) and the EC50 (Beta-galactosidase [5]) was > 31.5 µM (inactive). The IC50 [6] was greater than 32 µM, the EC50 (Streptococcus) was 10.1 µM (active) and the CC50 [7] was 0.982 µM (active). The CC50 [8] was > 5 µM (active), the CC50 [9] was 3.18 µM (active) and the IC50 (cells) was < 0.1 µM (active). For the same compound, the AC50 (INS1) was 2.72 µM (active), the AC50 [10] was 3.57 µM (active) and the AC50 [11] was 10 µM (active). The AC50 [12] was 1.21 µM (active), the AC50 [13] was 1.61 µM (active) and the AC50 [14] was 8.2 µM (active).
In the case of `CCOCCn1c(SCCCc2ccccc2)nc2c1c(=O)[nH]c(=O)n2C`, the IC50 (Coagulation factor XII [15]) is reported as > 50 µM (inactive).
In the case of `COc1ccc(OCCOc2ccc(C)nc2[N+](=O)[O-])cc1`, the EC50 [16] is reported as > 50 µM (inactive).
With `O=S(=O)(N1CCCCC1)N1CCN(c2ccccc2F)CC1` the IC50 (Coagulation factor XII [17]) was > 50 µM (inactive).
With `CCSc1nc(-c2ccccc2)nc(C(Cl)Cl)n1` the EC50 [18] was > 120 µM (not active), the EC50 [19] was 5.98 µM (active) and the EC50 [20] was 1.11 µM (active). For the same compound, the IC50 (Phosphomannomutase 2) was > 100 µM (inactive), the “Absolute IC50 (XBP1)” value (X-box-binding protein 1) was 10 µM and the AC50 (Paired box protein Pax-8) was 1.95 µM (active).
